Laboratory results as given in patent publication US7795278B2 (sanofi-aventis Deutschland GmbH, priority 2004, dated 2010).

Columns and labels:
[1] = molecular target: recombinantly expressed human PARP-1 enzyme (Homo sapiens, UniProt P09874); assay: PARP enzyme assay (half-maximum inhibitor concentration); type: biochemical; conditions: DNA-activated PARP-1, 200 μM NAD, tritium-labeled NAD incorporation, room temperature, 1 hour, pH 8.0
Procedure: Pharmacological Investigations PARP Enzyme Assay
The half-maximum inhibitor concentration is determined by incubating the substances to be tested with the DNA-activated, recombinantly expressed and purified PARP-1 enzyme. Specifically, various concentrations of the test substance are incubated in 50 μl of reaction solution, which contains 50 mM Tris, 5 mM MgCl2, 1 mM DTT, 200 μM NAD, 0.1 mCi/ml tritium-labeled NAD, 0.1 mg/ml DNA, 0.1 mg/ml histones, 2 μg/ml recombinantly expressed human PARP-1 enzyme, pH=8.0, at room temperature for 1 hour. The reaction is stopped by adding 150 μl of 20% trichloroacetic acid, and the radiolabeled protein constituents are precipitated. After incubation on ice for 10 minutes, the labeled, insoluble constituents are separated off through a glass fiber filter and, after washing with 20% trichloroacetic acid three times, the radioactivity incorporated by the PARP-1 enzyme is measured by radioluminescence.
IC-50 values were determined in this way for the following compounds: […]

[2] = system: rat cardiomyocytes (H9c2 cell line); assay: ATP consumption assay in cardiomyoblasts; type: cell-based; conditions: H9c2 cells, 15 min preincubation, 300 μM H2O2 for 1 hour, cellular ATP content by luciferase reaction
Procedure: ATP Consumption Assay in Cardiomyoblasts
The activity of the test substances in cells is ascertained by means of an ATP consumption assay. For this purpose, rat cardiomyocytes (H9c2 cell line) are seeded in a 96-well plate (40 000 cells per well, RPMI1640; 10% FCS) and kept at 37° C. and 5% CO2 for 16 hours. The cells are washed with PBS and incubated under identical conditions with various concentrations of the test substance in medium for 15 min. After addition of 300 μM H2O2, the cells are kept at 37° C., 5% CO2 for a further hour and lysed, and the cellular content of ATP is determined by means of luciferase reaction. The half-maximum effective concentration of the substances (EC50) is determined as the concentration at which the ATP content of the cells has reached half the value which can be measured with a maximally effective concentration of the same substance.
(§1) EC-50 values and apparent Ki values are determined in this way for all the following selected compounds: […]

[3] = molecular target: purified human PARP-1 enzyme (Homo sapiens, UniProt P09874); assay: Enzyme inhibition assay with various substrate concentrations (apparent Ki); type: biochemical; conditions: various concentrations of tritium-labeled NAD, room temperature, 10 min; Michaelis-Menten, purely competitive inhibition assumed; read-out: app. Ki
Procedure: Enzyme Inhibition Assay with Various Substrate Concentrations
Apparent Ki values of the test substances are determined in an enzymatic assay using the purified human PARP-1 enzyme. Specifically, various concentrations of the tritium-labeled substrate NAD are incubated with an identical concentration of the test substance in 50 μl of reaction solution, which contains 50 mM tris, 5 mM MgCl2, 1 mM DTT, 0.1 mg/ml DNA, 0.1 mg/ml histones, 2 μg/ml recombinantly expressed human PARP-1 enzyme, pH=8.0, at room temperature for 10 min. The reaction is stopped by adding 150 μl of 20% trichloroacetic acid, and the radiolabeled protein constituents are precipitated. After incubation on ice for 10 minutes, the labeled, insoluble constituents are separated off through a glass fiber filter and, after washing with 20% trichloroacetic acid three times, the radioactivity incorporated by the PARP-1 enzyme is measured by radioluminescence. Evaluation of the incorporation rates determined in this way as a function of the concentration of the substrate NAD affords the apparent Ki values according to Michaelis-Menten kinetics, assuming that the mechanism of inhibition is purely competitive.
as §1

purified human PARP-1 enzyme, sequence (P09874 whole entry): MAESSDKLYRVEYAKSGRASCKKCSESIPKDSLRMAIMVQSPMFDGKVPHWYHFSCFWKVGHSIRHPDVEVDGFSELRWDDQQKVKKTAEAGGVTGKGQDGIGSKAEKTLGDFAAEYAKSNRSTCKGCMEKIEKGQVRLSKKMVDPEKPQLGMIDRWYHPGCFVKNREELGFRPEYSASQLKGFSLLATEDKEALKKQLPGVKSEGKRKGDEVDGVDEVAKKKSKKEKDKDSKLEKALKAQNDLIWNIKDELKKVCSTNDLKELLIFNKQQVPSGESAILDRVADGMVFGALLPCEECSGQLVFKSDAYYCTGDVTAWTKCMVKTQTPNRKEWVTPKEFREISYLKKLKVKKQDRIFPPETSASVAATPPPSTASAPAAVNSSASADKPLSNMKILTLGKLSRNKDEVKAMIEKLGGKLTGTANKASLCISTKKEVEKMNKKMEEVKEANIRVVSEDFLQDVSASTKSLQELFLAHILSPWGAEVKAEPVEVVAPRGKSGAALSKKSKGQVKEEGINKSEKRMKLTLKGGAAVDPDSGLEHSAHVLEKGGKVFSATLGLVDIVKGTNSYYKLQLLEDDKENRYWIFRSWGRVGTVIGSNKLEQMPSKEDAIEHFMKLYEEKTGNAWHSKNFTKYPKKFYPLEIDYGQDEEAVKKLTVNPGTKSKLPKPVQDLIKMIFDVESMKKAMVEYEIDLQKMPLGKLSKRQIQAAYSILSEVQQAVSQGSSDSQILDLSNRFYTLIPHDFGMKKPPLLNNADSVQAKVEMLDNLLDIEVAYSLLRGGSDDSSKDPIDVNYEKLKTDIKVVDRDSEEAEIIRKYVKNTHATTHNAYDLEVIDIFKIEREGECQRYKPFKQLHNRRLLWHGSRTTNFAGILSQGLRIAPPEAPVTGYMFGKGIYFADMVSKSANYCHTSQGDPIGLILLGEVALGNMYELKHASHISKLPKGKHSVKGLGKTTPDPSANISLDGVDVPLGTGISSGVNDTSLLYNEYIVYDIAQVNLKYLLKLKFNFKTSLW
recombinantly expressed human PARP-1 enzyme, sequence (P09874 whole entry): as above

| IC50 [1] [nM] | Ki [3] [nM] | Compound | EC50 [2] [nM] |
| --- | --- | --- | --- |
| 90 | 54 | CC(=O)c1cccc(Nc2c(C)[nH]c(=O)c3c2CCCC3)c1 [Example 16, 4-(3-acetylphenylamino)-3-methyl-5,6,7,8-tetrahydro-2H-isoquinolin-1-one] | 200 |
| 110 | 24 | O=c1[nH]cc(-c2ccc(CNCC(O)c3ccccc3)o2)c2c1CCCC2 (centres unmarked) [Example 72, 4-{5-[(2-hydroxy-2-phenyl-ethylamino)methyl]furan-2-yl}-5,6,7,8-tetrahydro-2H-isoquinolin-1-one] | 380 |
| 220 | 31 | O=C(NCCN1CCCC1)c1cccc(Nc2c[nH]c(=O)c3c2CCCC3)c1 [Example 24, 3-(1-Oxo-1,2,5,6,7,8-hexahydroisoquinolin-4-ylamino)-N-(2-pyrrolidin-1-ylethyl)benzamide] |  |
| 300 | 15 | Cc1[nH]c(=O)c2c(c1-c1ccc(CN3CCCC3)o1)CCCC2 [Example 54, 3-methyl-4-(5-pyrrolidin-1-ylmethylfuran-2-yl)-5,6,7,8-tetrahydro-2H-isoquinolin-1-one] | 330 |
| 380 |  | Cc1[nH]c(=O)c2c(c1-c1cccs1)CCCC2 [Example 18, 3-methyl-4-thiophen-2-yl-5,6,7,8-tetrahydro-2H-isoquinolin-1-one] |  |
| 1210 |  | Cc1[nH]c(=O)c2c(c1Nc1cccc(OC(F)(F)F)c1)CCCC2 [Example 14, 3-methyl-4-(3-trifluoromethoxy-phenylamino)-5,6,7,8-tetrahydro-2H-isoquinolin-1-one] |  |
| 250 | 40 | CCCCNCc1ccc(-c2c[nH]c(=O)c3c2CCCC3)o1 [Example 78, 4-(5-butylaminomethylfuran-2-yl)-5,6,7,8-tetrahydro-2H-isoquinolin-1-one] | 520 |
| 280 | 16 | Cc1[nH]c(=O)c2c(c1-c1ccc(CO)o1)CCCC2 [Example 9, 4-(5-Hydroxymethylfuran-2-yl)-3-methyl-5,6,7,8-tetrahydro-2H-isoquinolin-1-one] | 1570 |
| 390 |  | CCOc1cccc(Nc2c[nH]c(=O)c3c2CCCC3)c1 [Example 11, 4-(3-ethoxyphenylamino)-5,6,7,8-tetrahydro-2H-isoquinolin-1-one] |  |
| 330 |  | Cc1[nH]c(=O)c2c(c1-c1ccc(CNCc3cnn(C)c3)o1)CCCC2 [Example 52, 3-methyl-4-(5-{[(1-methyl-1H-pyrazol-4-ylmethyl)amino]methyl}-furan-2-yl)-5,6,7,8-tetrahydro-2H-isoquinolin-1-one] |  |
| 3190 |  | CN(Cc1ccncc1)C(=O)c1cncc(-c2c[nH]c(=O)c3c2CCCC3)c1 [Example 38, N-methyl-5-(1-oxo-1,2,5,6,7,8-hexahydroisoquinolin-4-yl)-N-pyridin-4-ylmethylnicotinamide] |  |
| 1700 |  | COc1cccc(CNC(=O)c2cncc(-c3c[nH]c(=O)c4c3CCCC4)c2)c1 [Example 45, N-(3-methoxybenzyl)-5-(1-oxo-1,2,5,6,7,8-hexahydroisoquinolin-4-yl)nicotinamide] |  |
| 770 |  | CN(Cc1cccc([N+](=O)[O-])c1)C(=O)c1cncc(-c2c[nH]c(=O)c3c2CCCC3)c1 [Example 32, N-methyl-N-(3-nitrobenzyl)-5-(1-oxo-1,2,5,6,7,8-hexahydroisoquinolin-4-yl)nicotinamide] |  |
| 7700 |  | O=C(c1cncc(-c2c[nH]c(=O)c3c2CCCC3)c1)N1CCCC1 [Example 25, 4-[5-(pyrrolidine-1-carbonyl)-pyridin-3-yl]-5,6,7,8-tetrahydro-2H-isoquinolin-1-one] |  |
| 1250 |  | COc1ccc(C(=O)NCc2ccc(-c3c[nH]c(=O)c4c3CCCC4)o2)cc1 [Example 83, 4-methoxy-N-[5-(1-oxo-1,2,5,6,7,8-hexahydroisoquinolin-4-yl)furan-2-ylmethyl]benzamide] |  |
| 4070 |  | CC(=O)Nc1ccc(CNC(=O)c2cncc(-c3c[nH]c(=O)c4c3CCCC4)c2)cc1 [Example 37, N-(4-acetylaminobenzyl)-5-(1-oxo-1,2,5,6,7,8-hexahydroisoquinolin-4-yl)nicotinamide] |  |
| 3290 |  | COc1cccc(CNC(=O)c2cncc(-c3c[nH]c(=O)c4c3CCCC4)c2)c1OC [Example 47, N-(2,3-dimethoxybenzyl)-5-(1-oxo-1,2,5,6,7,8-hexahydroisoquinolin-4-yl)nicotinamide] |  |
| 1430 |  | O=C1OCc2ccc(Nc3c[nH]c(=O)c4c3CCCC4)cc21 [Example 10] |  |
| 590 |  | Cc1[nH]c(=O)c2c(c1-c1ccc(CNCc3ccccc3)o1)CCCC2 [Example 51, 4-[5-(benzylaminomethyl)furan-2-yl]-3-methyl-5,6,7,8-tetrahydro-2H-isoquinolin-1-one] |  |
| 4540 |  | Cn1c(CNCc2ccc(-c3c[nH]c(=O)c4c3CCCC4)o2)nc2ccccc21 [Example 55, 4-(5-{[(1-methyl-1H-benzoimidazol-2-ylmethyl)amino]methyl}furan-2-yl)-5,6,7,8-tetrahydro-2H-isoquinolin-1-one] |  |
| 2010 |  | O=C(NCCc1cccnc1)c1cccc(Nc2c[nH]c(=O)c3c2CCCC3)c1 [Example 23, 3-(1-Oxo-1,2,5,6,7,8-hexahydroisoquinolin-4-ylamino)-N-(2-pyridin-3-ylethyl)benzamide] |  |
